One block for each molecule: values may come before it.
Columns and labels:
Format in all cases: cell-based
[1] = molecular target: T1, cystic fibrosis transmembrane conductance regulator (CFTR) (Mus musculus, UniProt P26361); test: whole-cell patch clamp of native Cl- current in mouse sperm; details: read-out: % inhibition of db-cAMP-stimulated current (at 5 μM)
[2] = molecular target: T1, cystic fibrosis transmembrane conductance regulator (CFTR)
[3] = molecular target: T1, cystic fibrosis transmembrane conductance regulator (CFTR); test: whole-cell patch clamp; details: read-out: % stimulation at 20 μM

T1 sequence (P26361 whole entry): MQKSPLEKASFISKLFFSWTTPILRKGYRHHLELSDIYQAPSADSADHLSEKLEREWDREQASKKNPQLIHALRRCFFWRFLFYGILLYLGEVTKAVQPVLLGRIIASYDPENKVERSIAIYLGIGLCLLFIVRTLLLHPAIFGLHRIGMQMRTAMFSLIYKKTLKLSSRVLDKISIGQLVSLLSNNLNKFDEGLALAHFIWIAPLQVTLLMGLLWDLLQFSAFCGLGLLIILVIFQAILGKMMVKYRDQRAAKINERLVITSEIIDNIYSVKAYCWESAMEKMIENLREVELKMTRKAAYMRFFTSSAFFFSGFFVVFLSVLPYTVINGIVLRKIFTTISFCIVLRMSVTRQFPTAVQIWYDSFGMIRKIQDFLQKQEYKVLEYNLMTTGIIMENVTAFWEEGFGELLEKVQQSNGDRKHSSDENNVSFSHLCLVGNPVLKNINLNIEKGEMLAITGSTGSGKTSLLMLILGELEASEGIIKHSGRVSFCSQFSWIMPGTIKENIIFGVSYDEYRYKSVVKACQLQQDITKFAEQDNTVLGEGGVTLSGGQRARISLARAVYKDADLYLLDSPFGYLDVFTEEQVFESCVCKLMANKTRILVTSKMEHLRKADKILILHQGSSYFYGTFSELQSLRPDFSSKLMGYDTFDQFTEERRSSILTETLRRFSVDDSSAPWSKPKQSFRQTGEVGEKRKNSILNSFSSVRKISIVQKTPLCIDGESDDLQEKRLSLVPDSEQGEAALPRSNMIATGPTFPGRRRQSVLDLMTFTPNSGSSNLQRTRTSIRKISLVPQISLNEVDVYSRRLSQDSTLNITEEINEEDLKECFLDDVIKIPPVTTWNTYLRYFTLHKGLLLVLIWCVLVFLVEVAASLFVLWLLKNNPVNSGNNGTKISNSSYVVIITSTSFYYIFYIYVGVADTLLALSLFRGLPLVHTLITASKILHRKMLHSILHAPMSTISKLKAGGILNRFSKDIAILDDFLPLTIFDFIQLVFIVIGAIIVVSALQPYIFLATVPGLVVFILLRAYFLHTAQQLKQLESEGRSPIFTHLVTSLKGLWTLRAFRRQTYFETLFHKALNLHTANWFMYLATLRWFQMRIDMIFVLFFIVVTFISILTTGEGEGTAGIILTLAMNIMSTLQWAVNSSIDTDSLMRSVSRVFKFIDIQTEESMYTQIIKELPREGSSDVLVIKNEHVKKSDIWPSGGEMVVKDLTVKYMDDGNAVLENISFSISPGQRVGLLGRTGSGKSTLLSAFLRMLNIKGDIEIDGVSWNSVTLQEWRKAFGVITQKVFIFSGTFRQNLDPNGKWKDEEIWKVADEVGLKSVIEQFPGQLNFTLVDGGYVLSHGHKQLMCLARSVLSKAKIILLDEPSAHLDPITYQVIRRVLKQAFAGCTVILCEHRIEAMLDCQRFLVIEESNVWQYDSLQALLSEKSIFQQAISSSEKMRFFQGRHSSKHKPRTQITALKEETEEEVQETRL

inhibition at 5 µM [1]: 60%
SMILES: O=C(O)c1ccc(/C=C2\SC(=S)N(c3cccc(C(F)(F)F)c3)C2=O)cc1 [CFTRinh-172, 3-[(3-trifluoromethyl)phenyl]-5-[(4 carboxyphenyl)methylene]-2-thioxo-4thiazolidinone]

SMILES: O=C(O)c1ccccc1Nc1ccccc1 [DPC]
IC50 [2]: ~175 µM

activation at 20 µM [3]: 54 ± 0.5%
SMILES: O=c1c(-c2ccc(O)cc2)coc2cc(O)cc(O)c12 [genistein]

Reference: paper PMC4076061 (Journal of cellular physiology, 2013)
